The nature of this data set: Assay (III) ThT fibrillation assay for physical stability. It counts as physicochemical. The conditions noted are these: for Th T pH 4.0 lag time (h): 37° C., orbital shaking 960 rpm; for ThT pH 4.0 lag time: Table 9. From the text: Low physical stability of a polypeptide may lead to amyloid fibril formation, which is observed as well-ordered, thread-like macromolecular structures in the sample eventually resulting in gel formation. This has traditionally been measured by visual inspection of the sample. However, that kind of measurement is very subjective and depending on the observer. Therefore, the application of a small molecule indicator probe is much more advantageous. Thioflavin T (ThT) is such a probe and has a distinct fluorescence signature when binding to fibrils [Naiki et al. (1989) Anal. Biochem. 177, 244-249; LeVine (1999) Methods. Enzymol. […], 274-284].
The time course for fibril formation can be described by a sigmoidal curve with the following expression [Nielsen et al. (2001) Biochemistry 40, 6036-6046]:
[formula] Here, F is the ThT fluorescence at the time t. The constant t0 is the time needed to reach 50% of maximum fluorescence. The two important parameters describing fibril formation are the lag-time calculated by t0−2T and the apparent rate constant kapp=1/τ.
Few of those intermediates nucleate to form a template onto which further intermediates may assembly and the fibrillation proceeds. The lag-time corresponds to the interval in which the critical mass of nucleus is built up and the apparent rate constant is the rate with which the fibril itself is formed.
Samples were prepared freshly before each assay. Each sample composition is described in each example. The pH of the sample was adjusted to the desired value using appropriate amounts of concentrated NaOH and HClO4 or HCl. Thioflavin T was added to the samples from a stock solution in H2O to a final concentration of 1 μM.
Sample aliquots of 200 μl were placed in a 96 well microtiter plate (Packard OptiPlate™-96, white polystyrene). Usually, four or eight replica of each sample (corresponding to one test condition) were placed in one column of wells. The plate was sealed with Scotch Pad (Qiagen).
Incubation at given temperature, shaking and measurement of the ThT fluorescence emission were done in a Fluoroskan Ascent FL fluorescence platereader or Varioskan platereader (Thermo Labsystems). The temperature was adjusted to 37° C. The orbital shaking was adjusted to 960 rpm with an amplitude of 1 mm in all the presented data. Fluorescence measurement was done using excitation through a 444 nm filter and measurement of emission through a 485 nm filter.
Each run was initiated by incubating the plate at the assay temperature for 10 min. The plate was measured every 20 minutes for a desired period of time. Between each measurement, the plate was shaken and heated as described.
The measurement points were saved in Microsoft Excel format for further processing and curve drawing and fitting was performed using GraphPad Prism. The background emission from ThT in the absence of fibrils was negligible. The data points are typically a mean of four or eight samples and shown with standard deviation error bars. Only data obtained in the same experiment (i.e. samples on the same plate) are presented in the same graph ensuring a relative measure of fibrillation […].
The data set may be fitted to Eq. (1). However, since full sigmodial curves in this case are not always achieved during the measurement time, the degree of fibrillation is expressed as ThT fluorescence tabulated as the mean of the samples and shown with the standard deviation at various time points.
The polypeptide concentration in each of the tested formulations were measured both before application in the ThT fibrillation assay (“Initial”) and after completion of the ThT fibrillation (“After ThT assay”). Concentrations were determined by reverse HPLC methods using a pramlintide standard as a reference. Before measurement after completion 150 μl was collected from each of the replica and transferred to an Eppendorf tube. These were centrifuged at 30000 G for 40 mins. […]

Starred links: 1 amine or outer side, 2 acyl side, 3 side chain; linkers in the order of their positions; H or OH if unused. Positions of bridges follow the written chain, without caps; N, C: chain ends. Residues, ends and D or L forms follow the SMILES beside them. *: point of attachment. C20 diacid = O=C(O)CCCCCCCCCCCCCCCCCCC(=O)*; γGlu = O=C(O)[C@H](CCC(=O)[*:2])N[*:1] Some results are limits rather than exact numbers.

Consider `CC[C@H](C)[C@H](NC(=O)[C@@H]1CCCN1C(=O)CNC(=O)[C@H](Cc1ccccc1)NC(=O)[C@H](CC(N)=O)NC(=O)[C@H](CC(N)=O)NC(=O)[C@H](CO)NC(=O)[C@H](CO)NC(=O)[C@H](Cc1c[nH]cn1)NC(=O)[C@H](CCCNC(=N)N)NC(=O)[C@H](CC(C)C)NC(=O)[C@H](Cc1ccccc1)NC(=O)[C@H](CCC(=O)O)NC(=O)[C@H](C)NC(=O)[C@H](CC(C)C)NC(=O)[C@H](CCCNC(=N)N)NC(=O)[C@H](CCC(N)=O)NC(=O)[C@@H](NC(=O)[C@H](C)NC(=O)[C@@H]1CSSC[C@H](NC(=O)CNC(=O)CC[C@H](NC(=O)CCCCCCCCCCCCCCCCCCC(=O)O)C(=O)O)C(=O)N[C@@H](CC(N)=O)C(=O)N[C@@H]([C@@H](C)O)C(=O)N[C@@H](C)C(=O)N[C@@H]([C@@H](C)O)C(=O)N1)[C@@H](C)O)C(=O)N[C@@H](CC(C)C)C(=O)N1CCC[C@H]1C(=O)N1CCC[C@H]1C(=O)N[C@H](C(=O)N[C@@H](CC(N)=O)C(=O)N[C@H](C(=O)NCC(=O)N[C@@H](CO)C(=O)N[C@@H](CC(N)=O)C(=O)N[C@H](C(=O)N1CCC[C@H]1C(N)=O)[C@@H](C)O)C(C)C)[C@@H](C)O` [Example 88, N-alpha-[(S)-4-Carboxy-4-(19-carboxynonadecanoylamino)butyryl]-[Gly1, Glu14, Arg17, Pro37]-pramlintide] ({C20 diacid-γGlu}-GCNTATCATQRLAEFLRHSSNNFGPILPPTNVGSNTP-NH2; disulfide 2-7 (inferred); C-terminus assumed), for which the “Th T pH 4.0 lag time (h)” value is reported as above 45 h and the “ThT pH 4.0 lag time” value is recorded as above 45 hr.
Take `CC[C@H](C)[C@H](NC(=O)[C@@H]1CCCN1C(=O)CNC(=O)[C@H](Cc1ccccc1)NC(=O)[C@H](CC(N)=O)NC(=O)[C@H](CC(N)=O)NC(=O)[C@H](CO)NC(=O)[C@H](CO)NC(=O)[C@H](Cc1c[nH]cn1)NC(=O)[C@H](CCCNC(=N)N)NC(=O)[C@H](CC(C)C)NC(=O)[C@H](Cc1ccccc1)NC(=O)[C@H](CCC(=O)O)NC(=O)[C@H](C)NC(=O)[C@H](CC(C)C)NC(=O)[C@H](CCCNC(=N)N)NC(=O)[C@H](CCC(N)=O)NC(=O)[C@@H](NC(=O)[C@H](C)NC(=O)[C@@H]1CSSC[C@H](NC(=O)[C@H](Cc2c[nH]cn2)NC(=O)CC[C@H](NC(=O)CCCCCCCCCCCCCCCCCCC(=O)O)C(=O)O)C(=O)N[C@@H](CC(N)=O)C(=O)N[C@@H]([C@@H](C)O)C(=O)N[C@@H](C)C(=O)N[C@@H]([C@@H](C)O)C(=O)N1)[C@@H](C)O)C(=O)N[C@@H](CC(C)C)C(=O)N1CCC[C@H]1C(=O)N1CCC[C@H]1C(=O)N[C@H](C(=O)N[C@@H](CC(N)=O)C(=O)N[C@H](C(=O)NCC(=O)N[C@@H](CO)C(=O)N[C@@H](CC(N)=O)C(=O)N[C@H](C(=O)N1CCC[C@H]1C(N)=O)[C@@H](C)O)C(C)C)[C@@H](C)O` [Example 90, N-alpha-[(S)-4-Carboxy-4-(19-carboxynonadecanoylamino)butyryl]-[His1, Glu14, Arg17, Pro37]-pramlintide] ({C20 diacid-γGlu}-HCNTATCATQRLAEFLRHSSNNFGPILPPTNVGSNTP-NH2; disulfide 2-7 (inferred); C-terminus assumed): the “Th T pH 4.0 lag time (h)” value is above 45 h and the “ThT pH 4.0 lag time” value is recorded as above 45 hr.
Regarding `CC[C@H](C)[C@H](NC(=O)[C@@H]1CCCN1C(=O)CNC(=O)[C@H](Cc1ccccc1)NC(=O)[C@H](CC(N)=O)NC(=O)[C@H](CC(N)=O)NC(=O)[C@H](CO)NC(=O)[C@H](CO)NC(=O)[C@H](Cc1c[nH]cn1)NC(=O)[C@H](Cc1c[nH]cn1)NC(=O)[C@H](CC(C)C)NC(=O)[C@H](Cc1ccccc1)NC(=O)[C@H](CCC(=O)O)NC(=O)[C@H](C)NC(=O)[C@H](CC(C)C)NC(=O)[C@H](CCCNC(=N)N)NC(=O)[C@H](CCC(N)=O)NC(=O)[C@@H](NC(=O)[C@H](C)NC(=O)[C@@H]1CSSC[C@H](NC(=O)CNC(=O)CC[C@H](NC(=O)CCCCCCCCCCCCCCCCCCC(=O)O)C(=O)O)C(=O)N[C@@H](CC(N)=O)C(=O)N[C@@H]([C@@H](C)O)C(=O)N[C@@H](C)C(=O)N[C@@H]([C@@H](C)O)C(=O)N1)[C@@H](C)O)C(=O)N[C@@H](CC(C)C)C(=O)N1CCC[C@H]1C(=O)N1CCC[C@H]1C(=O)N[C@H](C(=O)N[C@@H](CC(N)=O)C(=O)N[C@H](C(=O)NCC(=O)N[C@@H](CO)C(=O)N[C@@H](CC(N)=O)C(=O)N[C@H](C(=O)N1CCC[C@H]1C(N)=O)[C@@H](C)O)C(C)C)[C@@H](C)O` [Example 91, N-alpha-[(S)-4-Carboxy-4-(19-carboxynonadecanoylamino)butyryl]-[Gly1, Glu14, His17, Pro37]-pramlintide] ({C20 diacid-γGlu}-GCNTATCATQRLAEFLHHSSNNFGPILPPTNVGSNTP-NH2; disulfide 2-7), the “Th T pH 4.0 lag time (h)” value is on record as 29 h.
For the compound `CC[C@H](C)[C@H](NC(=O)[C@@H]1CCCN1C(=O)CNC(=O)[C@H](Cc1ccccc1)NC(=O)[C@H](CC(N)=O)NC(=O)[C@H](CC(N)=O)NC(=O)[C@H](CO)NC(=O)[C@H](CO)NC(=O)[C@H](Cc1c[nH]cn1)NC(=O)[C@H](CCCNC(=N)N)NC(=O)[C@H](CC(C)C)NC(=O)[C@H](Cc1ccccc1)NC(=O)[C@H](CCC(=O)O)NC(=O)[C@H](C)NC(=O)[C@H](CC(C)C)NC(=O)[C@H](CCCNC(=N)N)NC(=O)[C@H](CCC(N)=O)NC(=O)[C@@H](NC(=O)[C@H](C)NC(=O)[C@@H]1CSSC[C@H](NC(=O)[C@H](CCC(=O)O)NC(=O)[C@H](CCCNC(=N)N)NC(=O)[C@H](CCC(=O)O)NC(=O)CC[C@H](NC(=O)CCCCCCCCCCCCCCCCCCC(=O)O)C(=O)O)C(=O)N[C@@H](CC(N)=O)C(=O)N[C@@H]([C@@H](C)O)C(=O)N[C@@H](C)C(=O)N[C@@H]([C@@H](C)O)C(=O)N1)[C@@H](C)O)C(=O)N[C@@H](CC(C)C)C(=O)N1CCC[C@H]1C(=O)N1CCC[C@H]1C(=O)N[C@H](C(=O)N[C@@H](CC(N)=O)C(=O)N[C@H](C(=O)NCC(=O)N[C@@H](CO)C(=O)N[C@@H](CC(N)=O)C(=O)N[C@H](C(=O)N1CCC[C@H]1C(N)=O)[C@@H](C)O)C(C)C)[C@@H](C)O` [Example 124, N-alpha-[(S)-4-Carboxy-4-(19-carboxynonadecanoylamino)butyryl]-Glu-Arg-[Glu1, Glu14, Arg17, Pro37]-pramlintide] ({C20 diacid-γGlu}-ERECNTATCATQRLAEFLRHSSNNFGPILPPTNVGSNTP-NH2; disulfide 4-9), the “Th T pH 4.0 lag time (h)” value is on record as above 45 h and the “ThT pH 4.0 lag time” value is given as above 45 hr.
The corresponding values for `CC[C@H](C)[C@H](NC(=O)[C@@H]1CCCN1C(=O)CNC(=O)[C@H](Cc1ccccc1)NC(=O)[C@H](CC(N)=O)NC(=O)[C@H](CCC(N)=O)NC(=O)[C@H](CO)NC(=O)[C@H](CO)NC(=O)[C@H](Cc1c[nH]cn1)NC(=O)[C@H](Cc1c[nH]cn1)NC(=O)[C@H](CC(C)C)NC(=O)[C@H](Cc1ccccc1)NC(=O)[C@H](CCC(=O)O)NC(=O)[C@H](C)NC(=O)[C@H](CC(C)C)NC(=O)[C@H](CCCNC(=N)N)NC(=O)[C@H](CCC(N)=O)NC(=O)[C@@H](NC(=O)[C@H](C)NC(=O)[C@@H]1CSSC[C@H](NC(=O)[C@H](CCCCN)NC(=O)CC[C@H](NC(=O)CCCCCCCCCCCCCCCCCCC(=O)O)C(=O)O)C(=O)N[C@@H](CC(N)=O)C(=O)N[C@@H]([C@@H](C)O)C(=O)N[C@@H](C)C(=O)N[C@@H]([C@@H](C)O)C(=O)N1)[C@@H](C)O)C(=O)N[C@@H](CC(C)C)C(=O)N1CCC[C@H]1C(=O)N1CCC[C@H]1C(=O)N[C@H](C(=O)N[C@@H](CC(N)=O)C(=O)N[C@H](C(=O)NCC(=O)N[C@@H](CO)C(=O)N[C@@H](CC(N)=O)C(=O)N[C@H](C(=O)N1CCC[C@H]1C(N)=O)[C@@H](C)O)C(C)C)[C@@H](C)O` [Example 130, N-alpha-[(S)-4-Carboxy-4-(19-carboxynonadecanoylamino)butyryl]-[Glu14, His17, Gln21, Pro37]-pramlintide] ({C20 diacid-γGlu}-KCNTATCATQRLAEFLHHSSQNFGPILPPTNVGSNTP-NH2; disulfide 2-7 (inferred); C-terminus assumed) are above 45 h and above 45 hr.
